Test results taken from patent publication US20250296959A1, “B7-H3 TARGETING PEPTIDES AND CONSTRUCTS THEREOF” (Mariana Oncology Inc., priority 2024, published 2025).
Starred links: 1 amine or outer side, 2 acyl side, 3 side chain; linkers in the order of their positions; H or OH if unused. Positions of bridges follow the written chain, without caps; N, C: chain ends. Non-standard residues stand in square brackets, D forms with d. Residues, ends and D or L forms follow the SMILES beside them. *: point of attachment. Ala(piperidin-4-yl) = O=C([C@H](CC1CCN([*:3])CC1)N[*:1])[*:2]; DOTA = O=C(O)CN1CCN(CC(=O)O)CCN(CC(=O)*)CCN(CC(=O)O)CC1; Trp(5-F) = N[C@@H](Cc1c[nH]c2ccc(F)cc12)C(=O)O; 1Nal = N[C@@H](Cc1cccc2ccccc12)C(=O)O; Ala(4-THP) = N[C@@H](CC1CCOCC1)C(=O)O; Gly(4-THP) = N[C@H](C(=O)O)C1CCOCC1; Val(3-OH) = CC(C)(O)[C@H](N)C(=O)O; 4Pal = N[C@@H](Cc1ccncc1)C(=O)O; Abu(4-CN) = N#CCC[C@H](N)C(=O)O; Cha = N[C@@H](CC1CCCCC1)C(=O)O; Chg = N[C@H](C(=O)O)C1CCCCC1; Tle = CC(C)(C)[C@H](N)C(=O)O; hLeu = CC(C)CC[C@H](N)C(=O)O; NMeS = CN[C@@H](CO)C(=O)O; Nle = CCCC[C@H](N)C(=O)O

molecular target: T1, human 4lg B7-H3 (Homo sapiens, UniProt Q5ZPR3); experiment: Affinity determination by surface plasmon resonance (SPR) to 4Ig B7-H3; conditions: SPR KD—25° C., 4Ig B7-H3; 25° C. flow cell temperature
T1 sequence (Q5ZPR3 29-534): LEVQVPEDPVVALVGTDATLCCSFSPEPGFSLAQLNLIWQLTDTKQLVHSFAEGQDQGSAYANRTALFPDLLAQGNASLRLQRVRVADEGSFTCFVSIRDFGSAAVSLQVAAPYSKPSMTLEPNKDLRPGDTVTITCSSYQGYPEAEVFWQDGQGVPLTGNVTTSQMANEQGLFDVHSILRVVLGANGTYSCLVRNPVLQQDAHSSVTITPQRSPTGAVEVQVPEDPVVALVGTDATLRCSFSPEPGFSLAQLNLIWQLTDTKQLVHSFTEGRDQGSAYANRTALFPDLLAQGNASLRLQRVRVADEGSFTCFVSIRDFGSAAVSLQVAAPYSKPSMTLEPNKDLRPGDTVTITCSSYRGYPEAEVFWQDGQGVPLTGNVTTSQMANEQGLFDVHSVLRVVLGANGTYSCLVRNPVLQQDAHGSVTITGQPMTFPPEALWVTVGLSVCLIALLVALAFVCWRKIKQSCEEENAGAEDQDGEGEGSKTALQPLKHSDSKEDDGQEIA

Row | SMILES | Kd
1 | CC(=O)N[C@@H](CCC(C)C)C(=O)N[C@H](C(=O)N[C@H]1CSSC[C@@H](C(=O)N[C@@H](Cc2c[nH]c3ccc(F)cc23)C(=O)N[C@@H](Cc2ccccc2)C(=O)N(C)[C@@H](CO)C(=O)N[C@H](CCCCNC(=O)CN2CCN(CC(=O)O)CCN(CC(=O)O)CCN(CC(=O)O)CC2)C(N)=O)NC(=O)[C@H](Cc2ccc(O)cc2)NC(=O)[C@H](C(C)C)NC(=O)[C@H](CC(=O)O)NC(=O)[C@H](Cc2ccc(O)cc2)NC(=O)[C@H](CC2CCNCC2)NC(=O)CNC(=O)[C@H](C(C)C)NC1=O)C1CCCCC1 [compound 212, Ac-hLeu-Chg-C-V-G-PipAla-Y-D-V-Y-C-5FW-F-NMeSer-dLys(DOTA)-CONH2] (Ac-[hLeu][Chg]CVG[Ala(piperidin-4-yl)]YDVYC[Trp(5-F)]F[NMeS][dK](DOTA)-NH2; disulfide 3-11) | 0.1 to 0.3 µM
2 | CC(=O)N[C@@H](CCC(C)C)C(=O)N[C@@H](Cc1ccc(O)cc1)C(=O)N[C@H]1CSSC[C@@H](C(=O)N[C@@H](Cc2c[nH]c3ccccc23)C(=O)N[C@@H](Cc2ccccc2)C(=O)N[C@H](C(=O)N[C@H](CCCCNC(=O)CN2CCN(CC(=O)O)CCN(CC(=O)O)CCN(CC(=O)O)CC2)C(N)=O)[C@@H](C)O)NC(=O)[C@H](Cc2ccc(O)cc2)NC(=O)[C@H](C2CCCCC2)NC(=O)[C@H](CC(=O)O)NC(=O)[C@H](Cc2ccc(O)cc2)NC(=O)[C@H](CCCCN)NC(=O)CNC(=O)[C@H](C(C)(C)C)NC1=O [compound 216, Ac-hLeu-Y-C-Tbg-G-K-Y-D-ChG-Y-C-W-F-Thr-dLys(DOTA)-CONH2] (Ac-[hLeu]YC[Tle]GKYD[Chg]YCWFT[dK](DOTA)-NH2; disulfide 3-11) | < 0.001 µM
3 | CCCC[C@@H]1NC(=O)[C@@H](NC(=O)[C@H](Cc2ccc(O)cc2)NC(=O)[C@H](CCC(C)C)NC(C)=O)CSSC[C@@H](C(=O)N[C@@H](Cc2c[nH]c3ccc(F)cc23)C(=O)N[C@@H](Cc2ccccc2)C(=O)N[C@H](C(=O)N[C@H](CCCCNC(=O)CN2CCN(CC(=O)O)CCN(CC(=O)O)CCN(CC(=O)O)CC2)C(N)=O)[C@@H](C)O)NC(=O)[C@H](Cc2ccc(O)cc2)NC(=O)[C@H](C(C)C)NC(=O)[C@H](CC(=O)O)NC(=O)[C@H](Cc2ccc(O)cc2)NC(=O)[C@H](CCCCN)NC(=O)CNC1=O [compound 217, Ac-hLeu-Y-C-Nle-G-K-Y-D-V-Y-C-5FW-F-Thr-dLys(DOTA)-CONH2] (Ac-[hLeu]YC[Nle]GKYDVYC[Trp(5-F)]FT[dK](DOTA)-NH2; disulfide 3-11) | 0.001 to 0.01 µM
4 | CC(=O)N[C@@H](CCC(C)C)C(=O)N[C@@H](Cc1ccc(O)cc1)C(=O)N[C@H]1CSSC[C@@H](C(=O)N[C@@H](Cc2cccc3ccccc23)C(=O)N[C@@H](Cc2ccccc2)C(=O)N(C)[C@@H](CO)C(=O)N[C@H](CCCCNC(=O)CN2CCN(CC(=O)O)CCN(CC(=O)O)CCN(CC(=O)O)CC2)C(N)=O)NC(=O)[C@H](CC2CCCCC2)NC(=O)[C@H](C(C)C)NC(=O)[C@H](CC(=O)O)NC(=O)[C@H](Cc2ccncc2)NC(=O)[C@H](CCCCN)NC(=O)CNC(=O)[C@H](C(C)(C)C)NC1=O [compound 220, Ac-hLeu-Y-C-Tbg-G-K-4PyA-D-V-Cha-C-1Nal-F-NMeSer-dLys(DOTA)-CONH2] (Ac-[hLeu]YC[Tle]GK[4Pal]DV[Cha]C[1Nal]F[NMeS][dK](DOTA)-NH2; disulfide 3-11) | 0.01 to 0.1 µM
5 | CC(=O)N[C@@H](CCC(C)C)C(=O)N[C@@H](Cc1ccc(O)cc1)C(=O)N[C@H]1CSSC[C@@H](C(=O)N[C@@H](Cc2cccc3ccccc23)C(=O)N[C@@H](Cc2ccccc2)C(=O)N(C)[C@@H](CO)C(=O)N[C@H](CCCCNC(=O)CN2CCN(CC(=O)O)CCN(CC(=O)O)CCN(CC(=O)O)CC2)C(N)=O)NC(=O)[C@H](CCC#N)NC(=O)[C@H](C(C)C)NC(=O)[C@H](CC(=O)O)NC(=O)[C@H](Cc2ccncc2)NC(=O)[C@H](CCCCN)NC(=O)CNC(=O)[C@H](C(C)(C)C)NC1=O [compound 221, Ac-hLeu-Y-C-Tbg-G-K-4PyA-D-V-CyanoButric-C-1Nal-F-NMeSer-dLys(DOTA)-CONH2] (Ac-[hLeu]YC[Tle]GK[4Pal]DV[Abu(4-CN)]C[1Nal]F[NMeS][dK](DOTA)-NH2; disulfide 3-11) | 0.1 to 0.3 µM
6 | CC(=O)N[C@@H](CCC(C)C)C(=O)N[C@@H](Cc1ccc(O)cc1)C(=O)N[C@H]1CSSC[C@@H](C(=O)N[C@@H](Cc2cccc3ccccc23)C(=O)N[C@@H](Cc2ccccc2)C(=O)N(C)[C@@H](CO)C(=O)N[C@H](CCCCNC(=O)CN2CCN(CC(=O)O)CCN(CC(=O)O)CCN(CC(=O)O)CC2)C(N)=O)NC(=O)[C@H](CC2CCOCC2)NC(=O)[C@H](C(C)C)NC(=O)[C@H](CC(=O)O)NC(=O)[C@H](Cc2ccncc2)NC(=O)[C@H](CCCCN)NC(=O)CNC(=O)[C@H](C(C)(C)C)NC1=O [compound 223, Ac-hLeu-Y-C-Tbg-G-K-4PyA-D-V-ThpA-C-1Nal-F-NMeSer-dLys(DOTA)-CONH2] (Ac-[hLeu]YC[Tle]GK[4Pal]DV[Ala(4-THP)]C[1Nal]F[NMeS][dK](DOTA)-NH2; disulfide 3-11) | 0.01 to 0.1 µM
7 | CCCC[C@@H]1NC(=O)[C@H](C(C)C)NC(=O)[C@H](CC(=O)O)NC(=O)[C@H](Cc2ccncc2)NC(=O)[C@H](CCCCN)NC(=O)CNC(=O)[C@H](C(C)(C)C)NC(=O)[C@@H](NC(=O)[C@H](Cc2ccc(O)cc2)NC(=O)[C@H](CCC(C)C)NC(C)=O)CSSC[C@@H](C(=O)N[C@@H](Cc2cccc3ccccc23)C(=O)N[C@@H](Cc2ccccc2)C(=O)N(C)[C@@H](CO)C(=O)N[C@H](CCCCNC(=O)CN2CCN(CC(=O)O)CCN(CC(=O)O)CCN(CC(=O)O)CC2)C(N)=O)NC1=O [compound 225, Ac-hLeu-Y-C-Tbg-G-K-4PyA-D-V-Nle-C-1Nal-F-NMeSer-dLys(DOTA)-CONH2] (Ac-[hLeu]YC[Tle]GK[4Pal]DV[Nle]C[1Nal]F[NMeS][dK](DOTA)-NH2; disulfide 3-11) | 0.01 to 0.1 µM

Further lines, results first:

Row | Kd | SMILES
8 | 0.01 to 0.1 µM | CC(=O)N[C@@H](CCC(C)C)C(=O)N[C@H](C(=O)N[C@H]1CSSC[C@@H](C(=O)N[C@@H](Cc2c[nH]c3ccc(F)cc23)C(=O)N[C@@H](Cc2ccccc2)C(=O)N(C)[C@@H](CO)C(=O)N[C@H](CCCCNC(=O)CN2CCN(CC(=O)O)CCN(CC(=O)O)CCN(CC(=O)O)CC2)C(N)=O)NC(=O)[C@H](Cc2ccc(O)cc2)NC(=O)[C@H](C(C)C)NC(=O)[C@H](CC(=O)O)NC(=O)[C@H](Cc2ccc(O)cc2)NC(=O)[C@H](CC2CCNCC2)NC(=O)CNC(=O)[C@H](C(C)C)NC1=O)C(C)(C)O [compound 211, Ac-hLeu-hyVal-C-V-G-PipAla-Y-D-V-Y-C-5FW-F-NMeSer-dLys(DOTA)-CONH2] (Ac-[hLeu][Val(3-OH)]CVG[Ala(piperidin-4-yl)]YDVYC[Trp(5-F)]F[NMeS][dK](DOTA)-NH2; disulfide 3-11)
9 | 0.1 to 0.3 µM | CC(=O)N[C@@H](CCC(C)C)C(=O)N[C@H](C(=O)N[C@H]1CSSC[C@@H](C(=O)N[C@@H](Cc2c[nH]c3ccc(F)cc23)C(=O)N[C@@H](Cc2ccccc2)C(=O)N(C)[C@@H](CO)C(=O)N[C@H](CCCCNC(=O)CN2CCN(CC(=O)O)CCN(CC(=O)O)CCN(CC(=O)O)CC2)C(N)=O)NC(=O)[C@H](Cc2ccc(O)cc2)NC(=O)[C@H](C(C)C)NC(=O)[C@H](CC(=O)O)NC(=O)[C@H](Cc2ccc(O)cc2)NC(=O)[C@H](CC2CCNCC2)NC(=O)CNC(=O)[C@H](C(C)C)NC1=O)C1CCOCC1 [compound 213, Ac-hLeu-ThpG-C-V-G-PipAla-Y-D-V-Y-C-5FW-F-NMeSer-dLys(DOTA)-CONH2] (Ac-[hLeu][Gly(4-THP)]CVG[Ala(piperidin-4-yl)]YDVYC[Trp(5-F)]F[NMeS][dK](DOTA)-NH2; disulfide 3-11)
10 | 0.001 to 0.01 µM | CC(=O)N[C@@H](CCC(C)C)C(=O)N[C@@H](Cc1ccc(O)cc1)C(=O)N[C@H]1CSSC[C@@H](C(=O)N[C@@H](Cc2cccc3ccccc23)C(=O)N[C@@H](Cc2ccccc2)C(=O)N(C)[C@@H](CO)C(=O)N[C@H](CCCCNC(=O)CN2CCN(CC(=O)O)CCN(CC(=O)O)CCN(CC(=O)O)CC2)C(N)=O)NC(=O)[C@H](Cc2ccc(O)cc2)NC(=O)[C@H](C(C)C)NC(=O)[C@H](CC(=O)O)NC(=O)[C@H](Cc2ccncc2)NC(=O)[C@H](CCCCN)NC(=O)CNC(=O)[C@H](C(C)(C)C)NC1=O [compound 219, Ac-hLeu-Y-C-Tbg-G-K-4PyA-D-V-Y-C-1Nal-F-NMeSer-dLys(DOTA)-CONH2] (Ac-[hLeu]YC[Tle]GK[4Pal]DVYC[1Nal]F[NMeS][dK](DOTA)-NH2; disulfide 3-11)
11 | 0.001 to 0.01 µM | CC(=O)N[C@@H](CCC(C)C)C(=O)N[C@@H](Cc1ccc(O)cc1)C(=O)N[C@H]1CSSC[C@@H](C(=O)N[C@@H](Cc2c[nH]c3ccc(F)cc23)C(=O)N[C@@H](Cc2ccccc2)C(=O)N(C)[C@@H](CO)C(N)=O)NC(=O)[C@H](Cc2ccc(O)cc2)NC(=O)[C@H](C(C)C)NC(=O)[C@H](CC(=O)O)NC(=O)[C@H](Cc2ccncc2)NC(=O)[C@H](CCCCNC(=O)CN2CCN(CC(=O)O)CCN(CC(=O)O)CCN(CC(=O)O)CC2)NC(=O)CNC(=O)[C@H](C(C)C)NC1=O [compound 228, Ac-hLeu-Y-C-V-G-Lys(DOTA)-4PyA-D-V-Y-C-5FW-F-NMeSer-CONH2] (Ac-[hLeu]YCVGK(DOTA)[4Pal]DVYC[Trp(5-F)]F[NMeS]-NH2; disulfide 3-11)
